The values below come from patent US20250339444A1, “Methods and Compositions for Treating Fatty Liver and Viral Infections” (The Board of Trustees of the Leland Stanford Junior …, priority 2022, published 2025).

Each structure is given as a SMILES string.

One data set concerns PR8 virus (ATCC-VR-1469). The data set can be described thus: Influenza PR8 plaque assay in MDCK cells. In kind it is cell-based.
Data set [1] relates to hepatic steatosis in C57/BL6 mice on high fat diet. Nature of the data set: Hepatic steatosis in C57/BL6 mice on high fat diet, liver ultrasound. In kind it is in vivo. The conditions noted are these: 100 mg/kg/day.
The subject of data set [2] is Venezuelan equine encephalitis virus (VEEV) TC83 strain. The data set can be described thus: microbe, parasite or virus in culture. In kind it is cell-based. The conditions noted are these: U-87 MG, read-out: EC50, VEEV genome replication.
Data set [3] has as its system TMPRSS2-ACE2-Huh7.5 cells. Nature of the data set: Toxicity in the SARS-CoV-2 cell culture assay. The conditions noted are these: SARS-CoV-2 assay.
The next data set has as its system RSV-luc5 virus. Nature of the data set: RSV-luc5 luciferase replication assay in HeLa cells. The conditions noted are these: human respiratory syncytial virus, 72 h, read-out: EC50, RSV replication.
For data set [4], the system named is SARS-CoV-2. Nature of the data set: microbe, parasite or virus in culture. In kind it is cell-based. The note with it: Severe acute respiratory syndrome coronavirus 2, read-out: EC50, SARS-CoV-2 genome replication.
In data set [5] the test system is SARS-CoV-2. Nature of the data set: Combination of A27 with other antivirals against SARS-CoV-2. In kind it is cell-based. An excerpt: Thus, A27 can be combined with nirmatrelvir or paxlovid.
Another data set concerns HBV. Nature of the data set: Reduction of HBV surface antigen in cells infected with HBV. In kind it is cell-based. The note with it: Hepatitis B virus; cells infected with HBV (FIG. 4: engineered human liver tissue). On the procedure:
We then discovered that A27 had antiviral activity against HBV, showing reduction in HBV surface antigen in cells infected with HBV with an EC50 of ˜1 μM (FIG. 4).

The next data set addresses apolipoprotein B (apoB) (Homo sapiens, UniProt P04114). Nature of the data set: Binding to apolipoprotein B.
Another data set deals with HepG2 cells. The data set can be described thus: Steatosis in HepG2 cells cultured in fatty medium, Nile Red staining. In kind it is cell-based. On the procedure: Briefly, fatty medium was prepared by 1:1 mixture of oleic acid and palmitic acid (Sigma Aldrich) with 10% FFA-free bovine serum albumin (BSA) solution (Sigma Aldrich) in PBS. Essentially, 100 mM of oleic acid and palmitic acid was prepared in 99% methanol. Palmitic acid was prepared by shaking at 500 rpm 50° C. for 20 mins. 10 mM of oleic acid and palmitic acid was incubated with 10% BSA in PBS at 50° C. for 30 mins. A final concentration of 100 uM FFA mixture was made in the final cell culture medium. Cells were incubated in fatty medium for 4 days to induce fatty liver. Cells were then treated with A27 at various concentrations for 3 days in the presence of the fatty medium. To determine the degree of steatosis, cells were stained with 1 mg/ml Nile Red solution (Sigma Aldrich) in cell culture medium for 15 mins at 37° C. and florescence signal was measured (see FIG. 1).

apolipoprotein B (apoB), sequence (P04114 28-4563, species assumed): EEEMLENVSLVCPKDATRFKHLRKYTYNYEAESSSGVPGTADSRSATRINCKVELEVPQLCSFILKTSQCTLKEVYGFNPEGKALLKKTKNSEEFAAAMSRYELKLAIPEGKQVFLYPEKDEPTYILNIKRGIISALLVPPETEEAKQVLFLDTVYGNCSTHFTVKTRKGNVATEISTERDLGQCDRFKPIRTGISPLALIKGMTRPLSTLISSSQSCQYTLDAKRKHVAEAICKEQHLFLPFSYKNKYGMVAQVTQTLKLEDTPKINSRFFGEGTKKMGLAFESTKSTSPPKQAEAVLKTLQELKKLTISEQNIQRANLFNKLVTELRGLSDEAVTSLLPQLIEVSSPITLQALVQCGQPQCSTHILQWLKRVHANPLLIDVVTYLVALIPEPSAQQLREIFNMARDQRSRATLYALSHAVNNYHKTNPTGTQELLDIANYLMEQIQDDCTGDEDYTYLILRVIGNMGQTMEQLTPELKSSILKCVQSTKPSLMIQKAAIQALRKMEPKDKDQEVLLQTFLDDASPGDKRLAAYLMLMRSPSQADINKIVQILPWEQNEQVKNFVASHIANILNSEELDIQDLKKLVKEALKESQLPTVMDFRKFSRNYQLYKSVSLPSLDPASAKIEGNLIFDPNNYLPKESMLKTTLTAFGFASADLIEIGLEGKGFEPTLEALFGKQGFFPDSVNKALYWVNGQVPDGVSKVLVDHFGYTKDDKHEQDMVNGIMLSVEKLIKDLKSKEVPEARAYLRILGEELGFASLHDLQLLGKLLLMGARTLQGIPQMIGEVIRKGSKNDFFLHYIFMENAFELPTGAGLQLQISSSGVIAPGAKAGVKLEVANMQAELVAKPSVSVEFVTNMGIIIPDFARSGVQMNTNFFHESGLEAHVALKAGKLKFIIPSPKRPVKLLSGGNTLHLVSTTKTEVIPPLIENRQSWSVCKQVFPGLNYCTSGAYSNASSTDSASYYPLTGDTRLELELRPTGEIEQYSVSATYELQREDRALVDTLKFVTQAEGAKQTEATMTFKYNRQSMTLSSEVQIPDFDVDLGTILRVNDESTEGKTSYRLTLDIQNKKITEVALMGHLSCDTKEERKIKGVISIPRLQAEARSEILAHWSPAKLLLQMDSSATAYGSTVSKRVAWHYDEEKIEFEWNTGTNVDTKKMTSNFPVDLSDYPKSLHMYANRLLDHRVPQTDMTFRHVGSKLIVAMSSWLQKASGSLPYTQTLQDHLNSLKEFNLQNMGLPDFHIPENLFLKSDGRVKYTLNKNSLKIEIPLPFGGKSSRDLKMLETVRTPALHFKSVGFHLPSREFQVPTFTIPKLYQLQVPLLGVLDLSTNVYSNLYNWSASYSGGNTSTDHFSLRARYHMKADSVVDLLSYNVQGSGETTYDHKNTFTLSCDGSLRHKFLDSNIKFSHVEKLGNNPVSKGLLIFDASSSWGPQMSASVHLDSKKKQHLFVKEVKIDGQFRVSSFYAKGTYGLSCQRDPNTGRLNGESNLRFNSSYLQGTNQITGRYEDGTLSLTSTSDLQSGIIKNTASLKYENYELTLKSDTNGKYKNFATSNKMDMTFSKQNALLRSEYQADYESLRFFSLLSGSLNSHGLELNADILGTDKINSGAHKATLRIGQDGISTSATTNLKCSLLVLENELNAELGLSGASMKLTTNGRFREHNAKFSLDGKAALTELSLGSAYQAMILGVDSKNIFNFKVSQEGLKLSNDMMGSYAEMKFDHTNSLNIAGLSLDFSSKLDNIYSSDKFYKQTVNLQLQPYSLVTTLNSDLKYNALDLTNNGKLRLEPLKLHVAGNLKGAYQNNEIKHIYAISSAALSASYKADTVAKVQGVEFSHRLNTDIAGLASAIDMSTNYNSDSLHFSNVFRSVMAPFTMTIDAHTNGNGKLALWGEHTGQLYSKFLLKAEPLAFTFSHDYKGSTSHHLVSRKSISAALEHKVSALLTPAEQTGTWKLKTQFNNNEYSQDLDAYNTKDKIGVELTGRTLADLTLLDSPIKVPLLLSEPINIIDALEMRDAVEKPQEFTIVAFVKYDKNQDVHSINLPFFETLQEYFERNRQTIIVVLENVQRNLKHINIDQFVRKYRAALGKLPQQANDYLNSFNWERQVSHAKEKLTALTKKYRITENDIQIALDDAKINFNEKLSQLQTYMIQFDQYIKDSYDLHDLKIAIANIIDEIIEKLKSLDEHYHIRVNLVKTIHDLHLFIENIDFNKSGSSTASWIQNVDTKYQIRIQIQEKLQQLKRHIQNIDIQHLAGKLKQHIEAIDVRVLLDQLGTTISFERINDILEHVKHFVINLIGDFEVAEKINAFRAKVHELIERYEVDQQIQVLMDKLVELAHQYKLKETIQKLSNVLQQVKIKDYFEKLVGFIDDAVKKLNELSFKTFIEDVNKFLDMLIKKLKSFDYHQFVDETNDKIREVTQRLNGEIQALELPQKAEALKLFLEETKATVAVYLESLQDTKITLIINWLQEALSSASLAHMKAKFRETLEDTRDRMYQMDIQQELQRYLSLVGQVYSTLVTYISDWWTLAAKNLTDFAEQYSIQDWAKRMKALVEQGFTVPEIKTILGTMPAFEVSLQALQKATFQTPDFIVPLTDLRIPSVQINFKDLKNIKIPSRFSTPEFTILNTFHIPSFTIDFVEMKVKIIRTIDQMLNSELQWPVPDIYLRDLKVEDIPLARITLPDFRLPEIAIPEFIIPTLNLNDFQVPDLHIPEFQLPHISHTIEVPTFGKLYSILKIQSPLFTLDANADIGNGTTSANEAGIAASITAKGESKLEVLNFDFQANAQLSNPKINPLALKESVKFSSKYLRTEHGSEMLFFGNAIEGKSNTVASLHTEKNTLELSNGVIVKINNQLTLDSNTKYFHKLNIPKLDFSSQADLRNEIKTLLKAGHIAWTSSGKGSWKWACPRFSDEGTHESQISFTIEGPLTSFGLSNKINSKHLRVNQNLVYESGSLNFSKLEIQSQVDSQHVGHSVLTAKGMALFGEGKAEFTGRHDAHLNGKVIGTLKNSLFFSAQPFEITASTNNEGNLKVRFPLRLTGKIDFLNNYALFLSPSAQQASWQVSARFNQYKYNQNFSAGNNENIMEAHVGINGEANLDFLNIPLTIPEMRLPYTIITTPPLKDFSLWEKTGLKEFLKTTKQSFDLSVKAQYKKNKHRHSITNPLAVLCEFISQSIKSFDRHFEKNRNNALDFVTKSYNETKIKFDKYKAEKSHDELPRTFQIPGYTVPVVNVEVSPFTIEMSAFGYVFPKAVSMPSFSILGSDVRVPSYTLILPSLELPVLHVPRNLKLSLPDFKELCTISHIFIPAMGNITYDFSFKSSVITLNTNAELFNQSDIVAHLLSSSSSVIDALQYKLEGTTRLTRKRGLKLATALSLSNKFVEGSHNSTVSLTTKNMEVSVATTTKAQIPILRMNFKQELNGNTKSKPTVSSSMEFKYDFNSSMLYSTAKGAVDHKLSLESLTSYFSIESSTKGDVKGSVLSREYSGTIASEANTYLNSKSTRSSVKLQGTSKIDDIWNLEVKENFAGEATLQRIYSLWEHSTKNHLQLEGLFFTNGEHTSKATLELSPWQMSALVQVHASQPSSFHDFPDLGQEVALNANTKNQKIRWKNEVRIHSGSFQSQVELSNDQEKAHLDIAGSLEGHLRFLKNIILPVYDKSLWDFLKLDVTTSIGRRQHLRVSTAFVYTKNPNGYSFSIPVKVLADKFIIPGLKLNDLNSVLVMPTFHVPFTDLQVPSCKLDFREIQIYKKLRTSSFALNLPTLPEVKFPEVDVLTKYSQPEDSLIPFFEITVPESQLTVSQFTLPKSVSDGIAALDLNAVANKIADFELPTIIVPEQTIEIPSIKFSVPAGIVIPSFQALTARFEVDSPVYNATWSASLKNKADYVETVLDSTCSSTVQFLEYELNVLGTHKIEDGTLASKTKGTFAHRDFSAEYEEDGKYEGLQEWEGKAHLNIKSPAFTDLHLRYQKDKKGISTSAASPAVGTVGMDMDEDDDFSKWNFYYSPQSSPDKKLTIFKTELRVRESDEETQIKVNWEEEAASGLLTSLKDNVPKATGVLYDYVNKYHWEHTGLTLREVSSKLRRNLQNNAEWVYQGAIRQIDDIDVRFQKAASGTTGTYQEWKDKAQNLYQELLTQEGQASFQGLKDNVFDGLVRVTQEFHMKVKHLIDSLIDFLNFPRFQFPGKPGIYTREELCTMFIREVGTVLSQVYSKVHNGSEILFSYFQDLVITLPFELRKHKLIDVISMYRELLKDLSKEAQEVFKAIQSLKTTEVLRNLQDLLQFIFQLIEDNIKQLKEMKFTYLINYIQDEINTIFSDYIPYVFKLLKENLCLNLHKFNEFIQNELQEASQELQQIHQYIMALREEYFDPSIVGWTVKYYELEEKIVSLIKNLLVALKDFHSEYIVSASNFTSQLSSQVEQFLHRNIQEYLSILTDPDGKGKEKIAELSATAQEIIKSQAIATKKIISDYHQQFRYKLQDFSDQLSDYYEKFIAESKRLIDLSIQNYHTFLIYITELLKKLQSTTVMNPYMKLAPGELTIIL

As for `Cn1nc(C(=O)NC2CCN(CCN3CCCC3)CC2)c2ccc(N3CCCCCC3)nc21` [Compound A27], in the data set with PR8 virus (ATCC-VR-1469), the “plaque size compared to oseltamivir treated wells” value is listed as “smaller-sized plaques”. Moreover, in data set [1] (4 weeks), the tolerability in mice result is “tolerated A27 well”. For the same compound, in data set [1] (high fat diet for 4 weeks, versus vehicle), the “hepatic steatosis measured by liver ultrasound” value is reported as “reduces hepatic steatosis”. In addition, the EC50 was 7900 nM in data set [2]; 1100 nM in the data set with RSV-luc5 virus; 803 nM in the data set with SARS-CoV-2 [4]; around 1000 nM in the data set on HBV; around 500 nM with HepG2 cells (Homo sapiens, HepG2, 72 h, read-out: half effective concentration (EC50), inhibition of formation of steatosis). For the same compound, the toxicity result (in data set [3]; with U87-MG cells) was “without any evidence of toxicity” in each case. In addition, the “combination effect with polymerase inhibitor nucleoside analog” value in the data set on SARS-CoV-2 [5] (with a polymerase inhibitor nucleoside analog (e.g. EIDD2801)) is recorded as “additive”. The “combination effect with protease inhibitors” value in the data set on SARS-CoV-2 [5] (with protease inhibitors against SARS-CoV-2 (e.g. PF-07321332)) is on record as “synergistic”. The “binding to apolipoprotein B (apoB)” value on apolipoprotein B (apoB) is on record as “can bind”. In addition, the “lipid accumulation (Nile Red fluorescence)” value with HepG2 cells (HepG2 cells, A27 at various concentrations for 3 days in fatty medium) is reported as “dose-dependent decrease in lipid accumulation”.
